# US9896730B2, “Use of EMT gene signatures in cancer drug discovery, diagnostics, and treatment” (OSI Pharmaceuticals, LLC, priority 2011, dated 2018)
# “Also recorded” adds a separate entry of the source.
# B1: OSM: oncostatin M, EMT-inducing ligand (protein, UniProt P13725 26-221, looked up)
# Oncostatin-M: AAIGSCSKEYRVLLGQLQKQTDLMQDTSRLLDPYIRIQGLDVPKLREHCRERPGAFPSEETLRGLGRRGFLQTLNATLGCVLHRLADLEQRLPKAQDLERSGLNIEDLEKLQMARPNILGLRNNIYCMAQLLDNSDTAEPTKAGRGASQPPTPTPASDAFQRKLEGCRFLHGYHRFMHSVGRVFSKWGESPNRSRR
# Assays:
# lung tumors = conditions: adenocarcinoma patients versus squamous cell carcinoma patients; cited from earlier work
# H358 cells [1] = assay: Cell proliferation (Cell Titer Glo): erlotinib sensitivity in H358 EMT models; format: cell-based, human; conditions: ligand- and snai1-induced EMT
# Protocol: (§1) Measurement of Cell Proliferation: Cell proliferation was determined using the Cell Titer Glo assay (Promega Corporation, Madison, Wis.). Cell lines were seeded at a density of 3000 cells per well in a 96-well plate. For assessment of drug effects on proliferation, 24 hours after plating, cells were dosed with varying concentrations of drug, either as a single agent or in combination. The signal for Cell Titer Glo was determined 72 hours after dosing.
# (§2) Ligand-driven EMT models: NCI-H358 cells were cultured in RPMI medium (Gibco #21870) with 10% fetal bovine serum (Sigma), 1 mM sodium pyruvate (Gibco #11360), 2 mM L-glutamine (Gibco #25030) and 10 mM HEPES (Gibco #15630). For ligand treatment, cells were seeded in normal growth medium and stimulated the following day (Day 0) with 100 ng/ml HGF (Peprotech #100-39), 100 ng/ml OSM (R and D systems, 295-OM), 2.5 ng/ml TGFβ1 (EMD Biosciences #616450) or combinations of the three. Medium was changed and fresh ligand was added on day 4 and day 6 after stimulation, such that samples were stimulated with fresh ligand 24 hrs prior to RNA isolation. For analysis containing drug treatments, DMSO or Drug was added to the samples at time of ligand treatments. Samples were taken for RNA Day 1, Day 4 and Day 7. […]
# H1650 cells = assay: Cell proliferation (Cell Titer Glo): erlotinib sensitivity in H1650 EMT model; format: cell-based, human; conditions: H1650 cells in vitro, before or after EMT induction
# Protocol: as §1, §2
# [2] = test system: advanced, treatment-refractory NSCLC; conditions: Phase III, monotherapy, patients with advanced; cited from earlier work
# H358 cells [3] = assay: 88 gene EMTGS qPCR and EMT characterization, ligand-driven H358 EMT model; format: cell-based, human; conditions: 7 day ligand stimulation
# Protocol: as §2, with “7. NCI-H1650 and NCI-H292 cells were grown in RPM medium (Gibco #21870) with 10% fetal bovine serum (Sigma), 1 mM sodium pyruvate (Gibco #11360), 2 mM L-glutamine (Gibco #25030) and 10 mM HEPES (Gibco #15630). CFPAC1 cells (ATCC #CRL-1918) were cultured in DMEM (Gibco #11960) supplemented with 10% FBS (Sigma), 2 mM L-glutamine (Gibco #25030). A549 cells were cultured in MEM with 10% fetal bovine serum, 2 mM L-glutamine and 1 mM sodium pyruvate. Cells were treated with ligand for 7 days and harvested as described for NCI-H358 cells in [249] unless otherwise noted.” for “7.”
# (§3) Normalization genes used with 88 gene EMTGS for RT-PCR Analysis: The genes GTF2B, GAPDH, SDHA, and ACTB were chosen as normalization genes in qPCR analysis. […] The Delta Ct is then calculated as follows: Delta Ct=(Ct value of Gene X)−(Geometric mean of all normalization genes) For calculation of fold change between a control sample and a treated sample: Control sample=2^(−Delta Ct) Treated sample=2^(−Delta Ct) Fold change=Treated sample/Control sample Values below 1 (ratios) are converted to fold change by multiplying by −(1/X)
# A549 cells = assay: 88 gene EMTGS qPCR, A549 cells treated with TNF and TAK1 siRNA; format: cell-based, human; conditions: relative to untreated cells
# Protocol: as §2, §3
molecule,measurement,setting,value
"C#Cc1cccc(Nc2ncnc3cc(OCCOC)c(OCCOC)cc23)c1 [erlotinib, [6,7-bis(2-methoxyethoxy)-4-quinazolin-4-yl]-(3-ethynylphenyl)amine]",clinical response,lung tumors,respond better
same,sensitivity to erlotinib after EMT induction,H358 cells [1],decreased sensitivity; also recorded: decreases
same,sensitivity to erlotinib,H1650 cells,not sensitive
same,disease progression,[2],delayed disease progression
same,survival,[2],significantly prolonged survival
same,worsening of lung cancer-related symptoms,[2],delayed worsening
"HGF: hepatocyte growth factor, EMT-inducing ligand","extent of EMT induced (morphology, biomarker, phenotypic changes)",H358 cells [3],partial EMT
"TGFβ: transforming growth factor β, EMT-inducing ligand","extent of EMT induced (morphology, biomarker, phenotypic changes)",H358 cells [3],more advanced EMT
TNFa,effect on epithelial genes of 88 gene EMTGS,A549 cells,downregulation
same,effect on mesenchymal genes of 88 gene EMTGS,A549 cells,upregulation
B1,"extent of EMT induced (morphology, biomarker, phenotypic changes)",H358 cells [3],partial EMT
